Laboratory results taken from patent US20100240924A1, “2-ETHYL-4,6-DIMETHYL-PHENYL-SUBSTITUTED TETRAMIC ACID DERIVATIVES AS PEST CONTROL AGENTS AND/OR HERBICIDES” (BAYER CROPSCIENCE AG, priority 2003, published 2010).

Assays:
[1] = test system: Avena sativa; test: Herbicidal post-emergence action (Example A, greenhouse); assay type: in vivo; conditions: 320 g of a.i./ha
Method: (§1) Seeds of monocotyledonous and dicotyledonous weed and crop plants are placed into sandy loam in wood fibre pots, covered with soil and cultivated in a greenhouse under good growth conditions. 2-3 weeks after sowing, the test plants are treated at the one-leaf stage. The test compounds, formulated as wettable powders (WP), are, in various dosages with a water application rate of. 600 l/ha (converted), with 0.2% of wetting agent added, sprayed onto the green parts of the plants. After the test plants were kept in the greenhouse under optimum growth conditions for about 3 weeks, the effect of the preparations is rated visually in comparison to untreated controls (herbicidal effect in percent (%): 100% effect=the plants have died, 0% effect=like control plants).

[2] = test system: Lolium; test: as above; assay type: in vivo; conditions: 320 g of a.i./ha
Method: as §1

[3] = test system: Setaria; test: as above; assay type: in vivo; conditions: 320 g of a.i./ha
Method: as §1

[4] = test system: Sinapis; test: as above; assay type: in vivo; conditions: 320 g of a.i./ha, rated visually after about 3 weeks
Method: as §1

[5] = test system: Summer barley; test: Herbicidal post-emergence action, use of safeners, vessel trials with cereals in the greenhouse (Example B); conditions: in vivo
Method: (§2) Seeds of monocotyledonous and dicotyledonous weed and crop plants are placed into sandy loam in wood fibre pots or in plastic pots, covered with soil and cultivated in a greenhouse, during the vegetation period also outdoors outside of the greenhouse, under good growth conditions. 2-3 weeks after sowing, the test plants are treated at the one- to three-leaf stage. The test compounds, formulated as wettable powders (WP) or emulsifiable concentrates (EC) are, in various dosages with a water application rate of 300 l/ha (converted), with wetting agent (0.2 to 0.3%) added, sprayed onto the plants and the surface of the soil. 3-4 weeks after the treatment of the test plants, the effect of the preparations is rated visually in comparison to untreated controls (herbicidal effect in percent (%): 100% effect=the plants have died, 0% effect=like control plants). […]

[6] = test system: Summer wheat; test: as above; conditions: in vivo
Method: as §2

[7] = test system: Stellaria; test: Herbicidal post-emergence action (Example A, greenhouse); assay type: in vivo; conditions: 320 g of a.i./ha, rated visually after about 3 weeks
Method: as §1

[8] = test system: larvae of the mustard beetle (Phaedon cochleariae); test: Phaedon test (spray treatment); assay type: in vivo; conditions: 500 g/ha, spray treatment of Chinese cabbage discs
Method: [table] To produce a suitable preparation of active compound, 1 part by weight of active compound is mixed with the stated amounts of solvents and emulsifier, and the concentrate is diluted with emulsifier-containing water to the desired concentration. Discs of Chinese cabbage (Brassica pekinensis) are sprayed with a preparation of active compound of the desired concentration and, after they have dried, populated with larvae of the mustard beetle (Phaedon cochleariae).

[9] = test system: greenhouse red spider mite (Tetranychus urticae); test: Tetranychus test (OP-resistant/spray treatment); assay type: in vivo; conditions: 100 g/ha, OP-resistant, spray treatment of bean leaf discs
Method: To produce a suitable preparation of active compound, 1 part by weight of active compound is mixed with the stated amounts of solvents and emulsifier, and the concentrate is diluted with emulsifier-containing water to the desired concentration.
Discs of bean leaves (Phaseolus vulgaris) which are infested by all stages of the greenhouse red spider mite (Tetranychus urticae) are sprayed with a preparation of active compound of the desired concentration.
After the desired period of time, the activity in % is determined. 100% means that all spider mites have been killed; 0% means that none of the spider mites have been killed.

[10] = rated visually after about 3 weeks
[11] = rated visually after about 3 weeks (second table)

SMILES	herbicidal effect in percent, Avena sativa [1, 10] [%]	herbicidal effect in percent, Lolium [2, 10] [%]	herbicidal effect in percent, Setaria [3, 10] [%]	herbicidal effect in percent, Avena sativa [1, 11] [%]	herbicidal effect in percent, Lolium [2, 11] [%]	herbicidal effect in percent, Setaria [3, 11] [%]	herbicidal effect in percent, Sinapis [4] [%]	also measured
CCc1cc(C)cc(C)c1C1=C(O)C(C)N(CC)C1=O (centres unmarked) [Example I-a-1]	80	100	90					
CCc1cc(C)cc(C)c1C1=C(O)CN(C2CC2)C1=O [I-a-3]				80	100	90	70	
CCc1cc(C)cc(C)c1C1=C(OC(=O)C(C)(C)C)C(C)(C(C)C)NC1=O (centres unmarked) [I-b-3]	90	70	80					
CCc1cc(C)cc(C)c1C1=C(O)C(C)(C(C)C)NC1=O (centres unmarked) [I-a′-2]								Summer barley observed (%) [5]: 20%; Summer wheat observed (%) [6]: 25%
CCOC(=O)OC1=C(c2c(C)cc(C)cc2CC)C(=O)N(CC)C1C (centres unmarked) [Example I-c-1]	90	100	100					
CCOC(=O)OC1=C(c2c(C)cc(C)cc2CC)C(=O)NC1(C)C [I-c-2]				100	100	100	70	herbicidal effect in percent, Stellaria [7]: 70%
CCc1cc(C)cc(C)c1C1=C(OC(=O)C(C)C)C(C)(C2CC2)NC1=O (centres unmarked) [Example I-b-10]								Kill rate in % after 5 d [8]: 100%; Kill rate in % after 5 d [9]: 90%
CCc1cc(C)cc(C)c1C1=C(OC(=O)C(C)C)C(CC)(CC)NC1=O [Example I-b-18]								Kill rate in % after 5 d [8]: 100%; Kill rate in % after 5 d [9]: 100%
CCOC(=O)OC1=C(c2c(C)cc(C)cc2CC)C(=O)NC1(C)C(C)C (centres unmarked) [Example I-c-3]	90	100	90					
CCc1cc(C)cc(C)c1C1=C(OC(=O)C(C)C)C(C)(C)NC1=O [Example I-b-2]				100	100	100	70	herbicidal effect in percent, Stellaria [7]: 80%
